Measured values: patent publication US7479493B2, “Substituted benzyl amine compounds” (Janssen Pharmaceutica N.V., priority 2006, dated 2009)

Assays:
[1] = biological target: cloned human H3 receptor (Homo sapiens, UniProt Q9Y5N1); assay: H3 Receptor Binding; conditions: cloned human H3 receptor stably expressed in SK-N-MC cells
[2] = biological target: Rat SERT (Rattus norvegicus, UniProt P31652); assay: biochemical
Rat SERT, sequence (P31652 whole entry): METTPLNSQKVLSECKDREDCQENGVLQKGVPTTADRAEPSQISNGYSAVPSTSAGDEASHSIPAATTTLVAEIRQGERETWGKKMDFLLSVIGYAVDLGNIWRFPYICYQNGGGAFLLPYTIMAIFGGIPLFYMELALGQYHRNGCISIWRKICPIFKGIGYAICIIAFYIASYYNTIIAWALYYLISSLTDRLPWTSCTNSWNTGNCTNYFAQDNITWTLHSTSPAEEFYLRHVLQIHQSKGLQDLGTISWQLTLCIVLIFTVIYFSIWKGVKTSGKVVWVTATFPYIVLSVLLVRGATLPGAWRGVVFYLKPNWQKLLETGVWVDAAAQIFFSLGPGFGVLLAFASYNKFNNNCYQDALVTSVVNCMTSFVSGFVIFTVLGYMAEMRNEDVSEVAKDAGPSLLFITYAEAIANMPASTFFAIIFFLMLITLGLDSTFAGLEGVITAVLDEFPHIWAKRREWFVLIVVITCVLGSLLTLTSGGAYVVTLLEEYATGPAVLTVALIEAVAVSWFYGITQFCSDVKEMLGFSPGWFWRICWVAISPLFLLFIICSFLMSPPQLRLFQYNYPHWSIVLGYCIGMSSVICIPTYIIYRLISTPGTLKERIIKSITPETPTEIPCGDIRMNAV
Method: The supernatant was removed and re-centrifuged at 15,000 rpm for 30 min. […] Membranes were incubated with 0.6 nM [^3H]-Citalopram plus/minus test compounds for 60 min at 25° C. and harvested by rapid filtration over GF/C glass fiber filters (pretreated with 0.3% polyethylenimine) followed by four washes with ice-cold buffer. Nonspecific binding was defined in the presence of 100 μM fluoxetine.

cloned human H3 receptor, sequence (Q9Y5N1 whole entry): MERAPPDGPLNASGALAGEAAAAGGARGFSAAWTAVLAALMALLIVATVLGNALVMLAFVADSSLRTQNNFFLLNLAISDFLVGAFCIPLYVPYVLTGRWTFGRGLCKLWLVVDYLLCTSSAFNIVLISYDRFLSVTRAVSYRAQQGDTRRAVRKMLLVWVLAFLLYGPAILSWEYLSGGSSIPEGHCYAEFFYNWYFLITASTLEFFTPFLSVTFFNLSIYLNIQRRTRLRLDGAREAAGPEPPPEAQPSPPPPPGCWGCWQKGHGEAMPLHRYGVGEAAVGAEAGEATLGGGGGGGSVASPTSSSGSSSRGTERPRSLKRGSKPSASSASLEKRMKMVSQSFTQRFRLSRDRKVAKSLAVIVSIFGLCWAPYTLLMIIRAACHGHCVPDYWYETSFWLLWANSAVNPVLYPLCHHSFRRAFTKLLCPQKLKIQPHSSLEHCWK

Compound	Ki [1] [nM]	Ki [2] [nM]
CNCc1cc(N2CC[C@H](N(C)C)C2)ccc1Oc1ccc(SC)cc1 [Example 58, (S)-Dimethyl-{1-[3-methylaminomethyl-4-(4-methylsulfanyl-phenoxy)-phenyl]-pyrrolidin-3-yl}-amine]	300	6
CNCc1cc(N2CCN(C(C)C)CC2=O)ccc1Oc1ccc(Cl)c(Cl)c1 [Example 50, 1-[4-(3,4-Dichloro-phenoxy)-3-methylaminomethyl-phenyl]-4-isopropyl-piperazin-2-one]	150	7
CNCc1cc(N2CCN(C3CC3)CCC2=O)ccc1Oc1ccc(SC)cc1 [Example 57, 1-Cyclopropyl-4-[3-methylaminomethyl-4-(4-methylsulfanyl-phenoxy)-phenyl]-[1,4]diazepan-5-one]	37	4
CNCc1cc(N2CCN(C(C)C)CC2)ccc1Oc1ccc(SC)cc1 [Example 40, [5-(4-Isopropyl-piperazin-1-yl)-2-(4-methylsulfanyl-phenoxy)-benzyl]-methyl-amine]	7	0.1
CNCc1ccc(C(=O)N2CCN(C(C)C)CC2)cc1Oc1ccc(Cl)c(Cl)c1 [Example 37, [3-(3,4-Dichloro-phenoxy)-4-methylaminomethyl-phenyl]-(4-isopropyl-piperazin-1-yl)-methanone]	1	2
CSc1ccc(Oc2ccc(CN3CCN(C(C)C)CC3)cc2CNC2CC2)cc1 [Example 60, Cyclopropyl-[5-(4-isopropyl-piperazin-1-ylmethyl)-2-(4-methylsulfanyl-phenoxy)-benzyl]-amine]	2	3
COCCN(CCOC)Cc1ccc(C(=O)N2CCN(C3CC3)CC2)cc1Oc1ccc(C)nc1C [Example 82, [4-{[Bis-(2-methoxy-ethyl)-amino]-methyl}-3-(2,6-dimethyl-pyridin-3-yloxy)-phenyl]-(4-cyclopropyl-piperazin-1-yl)-methanone]	200	–
CNCc1cc(C(=O)N2CCC(N3CCOCC3)CC2)ccc1Oc1ccc(SC)cc1 [Example 23, [3-Methylaminomethyl-4-(4-methylsulfanyl-phenoxy)-phenyl]-(4-morpholin-4-yl-piperidin-1-yl)-methanone]	50	3
CSc1ccc(Oc2ccc(CN3CCN(C(C)C)CC3)cc2CN(C)C)cc1 [Example 62, [5-(4-Isopropyl-piperazin-1-ylmethyl)-2-(4-methylsulfanyl-phenoxy)-benzyl]-dimethyl-amine]	21	1
CNCc1cc(C(=O)N2CCN(C3CC3)CC2)ccc1Sc1ccc(Cl)cc1 [Example 28, [4-(4-Chloro-phenylsulfanyl)-3-methylaminomethyl-phenyl]-(4-cyclopropyl-piperazin-1-yl)-methanone]	150	–
CNCCNC(=O)c1ccc(CN(C)C)c(Oc2cccnc2)c1 [Example 89, 4-Dimethylaminomethyl-N-(2-methylamino-ethyl)-3-(pyridin-3-yloxy)-benzamide]	1900	–
CNCc1cc(N2CCN(C(C)C)CC2=O)ccc1Oc1ccc(SC)cc1 [Example 49, 4-Isopropyl-1-[3-methylaminomethyl-4-(4-methylsulfanyl-phenoxy)-phenyl]-piperazin-2-one]	400	2
CNCc1cc(N2CCCN(C(C)C)CC2)ccc1Oc1ccc(SC)cc1 [Example 52, [5-(4-Isopropyl-[1,4]diazepan-1-yl)-2-(4-methylsulfanyl-phenoxy)-benzyl]-methyl-amine]	8	1
CNCc1cc(CN2CCN(C(C)C)CC2)ccc1Oc1ccc(SC)cc1 [Example 61, [5-(4-Isopropyl-piperazin-1-ylmethyl)-2-(4-methylsulfanyl-phenoxy)-benzyl]-methyl-amine]	2	0.8
CNCc1cc(C(=O)NCCN(C)C)ccc1Oc1cccc(Cl)c1 [Example 26, 4-(3-Chloro-phenoxy)-N-(2-dimethylamino-ethyl)-3-methylaminomethyl-benzamide]	100	3
CNCc1cc(N2CCN(CCF)CC2)ccc1Oc1ccc(SC)cc1 [Example 44, [5-[4-(2-Fluoro-ethyl)-piperazin-1-yl]-2-(4-methylsulfanyl-phenoxy)-benzyl]-methyl-amine]	160	0.5
CNCc1cc(N2CCN(C)CC2)ccc1Oc1ccc(SC)cc1 [Example 41, Methyl-[5-(4-methyl-piperazin-1-yl)-2-(4-methylsulfanyl-phenoxy)-benzyl]-amine]	210	0.4
CNCc1cc(C(=O)N2CCN(C3CC3)CC2)ccc1Sc1ccccn1 [Example 29, (4-Cyclopropyl-piperazin-1-yl)-[3-methylaminomethyl-4-(pyridin-2-ylsulfanyl)-phenyl]-methanone]	170	–
CC(C)N1CCN(Cc2ccc(C(=O)N3CCCCC3)cc2Oc2cccnc2)CC1 [Example 88, [4-(4-Isopropyl-piperazin-1-ylmethyl)-3-(pyridin-3-yloxy)-phenyl]-piperidin-1-yl-methanone]	220	–

Compound	Ki [1] [nM]	Ki [2] [nM]
CNCc1cc(N2CCN(c3ccncc3)CC2)ccc1Oc1ccc(SC)cc1 [Example 43, Methyl-[2-(4-methylsulfanyl-phenoxy)-5-(4-pyridin-4-yl-piperazin-1-yl)-benzyl]-amine]	110	0.7
CNCc1cc(N2CCCN(C3CC3)CC2)ccc1Oc1ccc(Cl)c(Cl)c1 [Example 56, [5-(4-Cyclopropyl-[1,4]diazepan-1-yl)-2-(3,4-dichloro-phenoxy)-benzyl]-methyl-amine]	25	16
CNCc1cc(C(=O)N2CCN(C3CCC3)CC2)ccc1Oc1cccc(Cl)c1 [Example 72, [4-(3-Chloro-phenoxy)-3-methylaminomethyl-phenyl]-(4-cyclobutyl-piperazin-1-yl)-methanone]	4	65
CNCc1cc(N2CCNCC2=O)ccc1Oc1ccc(SC)cc1 [Example 48, 1-[3-Methylaminomethyl-4-(4-methylsulfanyl-phenoxy)-phenyl]-piperazin-2-one]	5500	0.4
CN(C)Cc1ccc(C(=O)N2CCCCC2)cc1Oc1ccccc1 [Example 84, (4-Dimethylaminomethyl-3-phenoxy-phenyl)-piperidin-1-yl-methanone]	4500	–
CN(C)Cc1ccc(C(=O)N2CCN(C3CC3)CC2)cc1OCc1ccccc1 [Example 81, (3-Benzyloxy-4-dimethylaminomethyl-phenyl)-(4-cyclopropyl-piperazin-1-yl)-methanone]	67	8000
CNCc1cc(N2CCN(C3CC3)CC2)ccc1Oc1ccc(Cl)c(Cl)c1 [Example 46, [5-(4-Cyclopropyl-piperazin-1-yl)-2-(3,4-dichloro-phenoxy)-benzyl]-methyl-amine]	49	4
CNCc1cc(C(=O)N2CCN(C3CC3)CC2)ccc1OCc1ccc(Cl)c(Cl)c1 [Example 59, (4-Cyclopropyl-piperazin-1-yl)-[4-(3,4-dichloro-benzyloxy)-3-methylaminomethyl-phenyl]-methanone]	70	4
CNCc1cc(C(=O)N2CC[C@H](N(C)C)C2)ccc1Oc1ccc(SC)cc1 [Example 25, (S)-(3-Dimethylamino-pyrrolidin-1-yl)-[3-methylaminomethyl-4-(4-methylsulfanyl-phenoxy)-phenyl]-methanone]	7	0.9
CNCc1cc(N2CCCN(C(C)C)CC2)ccc1Oc1ccc(Cl)c(Cl)c1 [Example 55, [2-(3,4-Dichloro-phenoxy)-5-(4-isopropyl-[1,4]diazepan-1-yl)-benzyl]-methyl-amine]	27	10
CNCc1cc(N2CCC(N3CCOCC3)CC2)ccc1Oc1ccc(SC)cc1 [Example 51, Methyl-[2-(4-methylsulfanyl-phenoxy)-5-(4-morpholin-4-yl-piperidin-1-yl)-benzyl]-amine]	28	2
CNCc1cc(CN2CCC(=O)N(C(C)C)CC2)ccc1Oc1ccc(Cl)c(Cl)c1 [Example 68, 1-[4-(3,4-Dichloro-phenoxy)-3-methylaminomethyl-benzyl]-4-isopropyl-[1,4]diazepan-5-one]	6300	7
Cc1ccc(Oc2cc(C(=O)N3CCN(C(C)C)CC3)ccc2CN2CCOCC2)c(C)n1 [Example 83, [3-(2,6-Dimethyl-pyridin-3-yloxy)-4-morpholin-4-ylmethyl-phenyl]-(4-isopropyl-piperazin-1-yl)-methanone]	21	–
CSc1ccc(Oc2ccc(CN3CCN(C(C)C)CC3)cc2CNC(C)C)cc1 [Example 64, Isopropyl-[5-(4-isopropyl-piperazin-1-ylmethyl)-2-(4-methylsulfanyl-phenoxy)-benzyl]-amine]	0.5	7
COCCN(CCOC)Cc1ccc(C(=O)N2CCC(N(C)C)CC2)cc1Oc1cccnc1 [Example 86, [4-{[Bis-(2-methoxy-ethyl)-amino]-methyl}-3-(pyridin-3-yloxy)-phenyl]-(4-dimethylamino-piperidin-1-yl)-methanone]	200	–
CN(C)Cc1ccc(C(=O)NCCN(C)C2CC2)cc1Oc1cccnc1 [Example 90, N-[2-(Cyclopropyl-methyl-amino)-ethyl]-4-dimethylaminomethyl-3-(pyridin-3-yloxy)-benzamide]	45	–
COCCN(CCOC)Cc1ccc(C(=O)N2CCN(C(C)C)CC2)cc1Oc1ccccc1 [Example 85, (4-{[Bis-(2-methoxy-ethyl)-amino]-methyl}-3-phenoxy-phenyl)-(4-isopropyl-piperazin-1-yl)-methanone]	12	–
COc1cccc(Oc2ccc(C(=O)N3CCN(C(C)C)CC3)cc2CN(C)C(=O)OC(C)(C)C)c1 [Example 91, [5-(4-Isopropyl-piperazine-1-carbonyl)-2-(3-methoxy-phenoxy)-benzyl]-methyl-carbamic acid tert-butyl ester]	58	–
CC(C)N1CCN(Cc2ccc(C(=O)N3CCCCC3)cc2Oc2ccccc2)CC1 [Example 87, [4-(4-Isopropyl-piperazin-1-ylmethyl)-3-phenoxy-phenyl]-piperidin-1-yl-methanone]	280	–
